IC50 and inhibition data for 25 molecules are collected here from ChEMBL document CHEMBL4130419, “Novel chemotypes targeting tubulin at the colchicine binding site and unbiasing P-glycoprotein” (Eur J Med Chem, 2017).

For experiment [1], the system named is MCF7. Description: Antiproliferative activity against human MCF7 cells after 72 hrs by MTT assay. In kind it is functional, cell-based. To be noted: MCF7, 72 h.
Experiment [2] relates to HepG2. Description: Antiproliferative activity against human HepG2 cells after 72 hrs by MTT assay. To be noted: HepG2, 72 h. In kind it is functional, cell-based.
The subject of experiment [3] is HeLa. The experiment can be described thus: Antiproliferative activity against human HeLa cells after 72 hrs by MTT assay. In kind it is functional, cell-based.
Experiment [4] relates to SH-SY5Y. Description: Antiproliferative activity against human SH-SY5Y cells after 72 hrs by MTT assay. In kind it is functional, cell-based.
The species entered for experiment [5] is Sus scrofa. Description: Inhibition of tubulin polymerization in porcine brain assessed as disruption of microtubule organization after 1 hr by fluorescence polarization assay.

On to `CCc1cccc(NC(=O)c2cnn3c(C(F)F)cc(-c4ccc(C)cc4)nc23)c1`, for which the 50% inhibitory concentration (IC50) in experiment [1] was 9.2 µM; in experiment [2], > 100 µM; in experiment [3], 95.5 µM; in experiment [4], 100 µM. Further, the inhibition entry in experiment [5] is “Dose-dependent effect”.
On to `COc1cc2c(=O)c(C(=O)c3ccc(C)c(C)c3)cn(Cc3ccc(F)cc3)c2cc1OC`, for which the IC50 was 5.7 µM in experiment [1], 72.4 µM in experiment [2], 36.3 µM in experiment [3] and 25.1 µM in experiment [4]. In experiment [5], the inhibition result was “Dose-dependent effect”.
In the same order, the values of `COc1ccc(C2CCCN2CC(=O)Nc2ccccc2-c2ccccc2)cc1` (stereo unspecified) are 7 µM, 35.5 µM, 20.8 µM, 8.7 µM and “Dose-dependent effect”.
Consider `Cc1cc(C)c(O)c(-c2n[nH]c3c2C(c2ccccc2)N(CCCO)C3=O)c1` (stereo unspecified), for which the IC50 in experiment [1] is 54 µM; in experiment [2], 48.9 µM; in experiment [3], 50.1 µM; in experiment [4], 51.3 µM. Moreover, in experiment [5], the inhibition result was “Dose-dependent effect”.
Take `COc1ccc(-n2c(SCC(=O)c3ccc(OC(F)F)cc3)nc3ccccc32)cc1`: the IC50 in experiment [1] turned out to be 9 µM; in experiment [2], 63.9 µM; in experiment [3] it was 37.1 µM; in experiment [4] it was 52.5 µM. Further, in experiment [5], the inhibition result is “Dose-dependent effect”.
In the same order, the values of `CCCSc1nnc(N2C(=O)C(O)=C(C(=O)c3ccco3)C2c2ccccc2F)s1` (stereo unspecified) are 25.2 µM, > 100 µM, 55 µM, 10.3 µM and “Dose-dependent effect”.
For the molecule `Cc1ccc(NC(=O)Cn2c(C(F)(F)F)nc3ccccc32)c(-c2nc(C3CC3)n[nH]2)c1`, the 50% inhibitory concentration (IC50) in experiment [1] turned out to be 13 µM; in experiment [2], 38.9 µM; in experiment [3] it was 1.6 µM; in experiment [4], 0.9 µM. In addition, the inhibition entry in experiment [5] is “Dose-dependent effect”.
Take `CCOC(=O)c1c(NC(=O)C2CC(=O)Nc3ccccc32)sc(C)c1C` (stereo unspecified): the half-inhibitory concentration (IC50) in experiment [1] was 9 µM; in experiment [2] it was > 100 µM; in experiment [3], > 100 µM; in experiment [4], 67.5 µM. In experiment [5], the inhibition result was “Dose-dependent effect”.
`Cc1n[nH]c(O)c1C(c1cccc(OCc2ccc(F)cc2)c1)c1c(O)n[nH]c1C`: the IC50 in experiment [1] is 8 µM; in experiment [2], > 100 µM; in experiment [3], 23.9 µM; in experiment [4] it was 43.7 µM. For the same molecule, the inhibition result in experiment [5] was “Dose-dependent effect”.
In the same order, the values of `Cc1ccc(-n2c(SCC(=O)N3CC(=O)Nc4ccccc43)nnc2-c2cccc(C)c2)cc1` are 68 µM, > 100 µM, 83 µM, 72.4 µM and “Dose-dependent effect”.
Take `COc1ccc(C)cc1NC(=O)c1cnn2c(C(F)F)cc(-c3ccc(C)cc3)nc12`: the IC50 was 7 µM in experiment [1], > 100 µM in experiment [2], 15.1 µM in experiment [3] and 67.6 µM in experiment [4]. The inhibition result in experiment [5] was “Dose-dependent effect”.
Take `C=CCOc1ccccc1CN(C(=O)CN1CCNC(=O)C1)c1ccc2c(c1)OCO2`: the half-maximal inhibitory concentration (IC50) in experiment [1] was 32 µM; in experiment [2], > 100 µM; in experiment [3], 66 µM; in experiment [4], > 100 µM. Further, the inhibition result in experiment [5] was “Dose-dependent effect”.
In the case of `COc1ccc(-c2nc3ccccc3c3nnc(SCc4ncc(C)c(OC)c4C)n23)cc1`, the IC50 in experiment [1] is 1.4 µM; in experiment [2], > 100 µM; in experiment [3], 19 µM; in experiment [4] it was 66 µM. In addition, the inhibition entry in experiment [5] was “Dose-dependent effect”.
For `CCOC(=O)c1c(NC(=O)C2=C(C)N=C(S)NC2c2ccc(CC)cc2)sc(C)c1C` (stereo unspecified), the concentration for half-maximal inhibition (IC50) was 26 µM in experiment [1], > 100 µM in experiment [2], 36.3 µM in experiment [3] and > 100 µM in experiment [4]. For the same molecule, the inhibition entry in experiment [5] is “Dose-dependent effect”.
For the molecule `CCOc1ccc(-n2c(SCC(=O)N3CCOCC3)nnc2-c2cccc(C)c2)cc1`, the IC50 in experiment [1] is 93 µM; in experiment [2] it was > 100 µM; in experiment [3], 61.6 µM; in experiment [4], > 100 µM. Further, the inhibition entry in experiment [5] is “Dose-dependent effect”.
As to `CCOC(=O)C1CCCN(C(=O)c2cc(-c3ccc(Cl)cc3)nc3ccccc23)C1` (stereo unspecified), the 50% inhibitory concentration (IC50) in experiment [1] is 17.4 µM; in experiment [2], 100 µM; in experiment [3] it was 54.9 µM; in experiment [4] it was 38 µM. For the same molecule, in experiment [5], the inhibition result was “Dose-dependent effect”.
In the same order, the values of `Cc1cccc(-n2ccnc2SCC(=O)c2ccc3c(c2)CCC(=O)N3)c1` are 66 µM, 91.2 µM, 81.7 µM, 67.6 µM and “Dose-dependent effect”.
Consider `COc1cc2c(c(OC)c1OC)-c1ccc(OC)c(=O)cc1[C@@H](NC(C)=O)CC2` [COLCHICINE], for which, in experiment [2], the midpoint of inhibition, the IC50, lay at 0.042 µM.
With `O=C(CSc1nnc(-c2c[nH]c3ccccc23)n1CC1CCCO1)c1ccc(Cl)s1` (stereo unspecified), the half-maximal inhibitory concentration (IC50) in experiment [1] was 66 µM; in experiment [2] it was 79.4 µM; in experiment [3], 45.7 µM; in experiment [4], 34.7 µM. Also, the inhibition entry in experiment [5] was “Dose-dependent effect”.
For `CSc1ccccc1NC(=O)c1cnn2c(C(F)F)cc(-c3ccc(C)cc3)nc12`, the concentration for half-maximal inhibition (IC50) stood at 6 µM in experiment [1], 100 µM in experiment [2], 95.5 µM in experiment [3] and 57.5 µM in experiment [4]. In addition, the inhibition result in experiment [5] is “Dose-dependent effect”.
In the same order, the values of `CC(=O)Nc1ccc(C2=CC(c3ccc(Cl)cc3Cl)n3nc(CCCO)nc3N2)cc1` (stereo unspecified) are 66 µM, 74.1 µM, 63.1 µM, 61.7 µM and “Dose-dependent effect”.
Take `O=C(Cn1cc(CNC2(c3ccccc3F)CCCC2)c2ccccc21)NC1CC1`: the IC50 is 29 µM in experiment [1], > 100 µM in experiment [2], 52.5 µM in experiment [3] and > 100 µM in experiment [4]. In experiment [5], the inhibition result is “Dose-dependent effect”.
For the molecule `CCC(c1nnc(SCC(=O)c2[nH]c(C)c(C(C)=O)c2C)n1Cc1ccccc1)N(C)C` (stereo unspecified), the IC50 in experiment [1] amounted to 10 µM; in experiment [2], 96.9 µM; in experiment [3], 74.1 µM; in experiment [4], 37 µM. In addition, in experiment [5], the inhibition result is “Dose-dependent effect”.
On to `Cc1cccc(-n2nc(C)c3c2NC2=C(C(=O)CC(C)(C)C2)C3c2ccc(O)cc2)c1` (stereo unspecified), for which the concentration for half-maximal inhibition (IC50) is 25 µM in experiment [1], > 100 µM in experiment [2], 10.7 µM in experiment [3] and 70.8 µM in experiment [4]. Moreover, in experiment [5], the inhibition result is “Dose-dependent effect”.
On to `COc1ccc(NS(=O)(=O)c2ccc3c(c2)N(C(C)=O)CC(C)O3)cc1Cl` (stereo unspecified), for which the IC50 is 23 µM in experiment [1], 77.6 µM in experiment [2], 45.7 µM in experiment [3] and > 100 µM in experiment [4]. In addition, in experiment [5], the inhibition entry is “Dose-dependent effect”.
